These results are taken from US20090011410A1, “METHOD FOR TAILORING ADMINISTRATION OF DRUGS BY QUANTITATION OF MRNA” (priority 2004, published 2009).

The assay concerns PUMA mRNA. Description: drug-induced PUMA mRNA expression in whole blood of leukemia and lymphoma patients. In kind it is cell-based, human. To be noted: 2 hours at 37° C.
The mark [1] stands for this setting: AML patient, drug concentrations of b94 (FIG. 8B).

As to `[NH2][Pt]([NH2])([Cl])[Cl]` [CDDP, cisplatin], the PUMA induction entry under setting [1] is “huge induction”.
For the molecule `COc1cccc2c1C(=O)c1c(O)c3c(c(O)c1C2=O)C[C@@](O)(C(C)=O)C[C@@H]3O[C@H]1C[C@H](N)[C@H](O)[C@H](C)O1` [DNR, daunorubicin], under “CLL patient, drug concentrations of b94 (FIG. 8A)”, the PUMA induction result is “induced”.
For the molecule `CN(Cc1cnc2nc(N)nc(N)c2n1)c1ccc(C(=O)N[C@@H](CCC(=O)O)C(=O)O)cc1` [MTX, methotrexate], the PUMA induction entry under setting [1] is “huge induction”. Moreover, the PUMA response entry (NHL patient, drug concentrations (FIG. 8C)) was “strong PUMA response”.
As for `Cc1c(N)nc([C@H](CC(N)=O)NC[C@H](N)C(N)=O)nc1C(=O)N[C@H](C(=O)N[C@H](C)[C@@H](O)[C@H](C)C(=O)N[C@H](C(=O)NCCc1nc(-c2nc(C(=O)NCCCN[C@@H](C)c3ccccc3)cs2)cs1)[C@@H](C)O)[C@@H](O[C@@H]1O[C@@H](CO)[C@@H](O)[C@H](O)[C@@H]1O[C@H]1O[C@H](CO)[C@@H](O)[C@H](OC(N)=O)[C@@H]1O)c1c[nH]cn1` [PEP, peplomycin], the PUMA induction result under setting [1] is listed as “huge induction”.
